Source: ChEMBL document CHEMBL1156327, “Synthesis and biological evaluation of anti-1-amino-2-[18F]fluoro-cyclobutyl-1-carboxylic acid (anti-2-[18F]FACBC) in rat 9L gliosarcoma” (Bioorg Med Chem Lett, 2010)

Key:
9L = experiment: Cellular uptake in rat 9L cells after 30 mins measured per 0.5 million cells; format: ADME, cell-based; conditions: 0.5 h
[1] = Drug uptake in rat 9L tumor implanted in Fischer 344 rat after 15 mins relative to control; format: ADME, Neoplasm; conditions: read-out: Drug uptake
[2] = Drug uptake in rat 9L cells xenografted Fisher 344 rat brain measured per gram of tissue; format: ADME, cell-based; conditions: Fischer 344, rat, read-out: Drug uptake
[3] = Ratio of drug level in Fisher 344 rat brain to rat 9L tumor cells implanted in Fisher 344 rat after 60 mins; format: ADME, cell-based; conditions: 1 h
[4] = Drug uptake in rat 9L tumor implanted in Fischer 344 rat after 60 mins relative to control; format: ADME, Neoplasm; conditions: read-out: Drug uptake
[5] = Ratio of drug level in Fisher 344 rat brain to rat 9L tumor cells implanted in Fisher 344 rat after 30 mins; format: ADME, cell-based; conditions: 0.5 h
[6] = Drug uptake in rat 9L tumor implanted in Fischer 344 rat after 120 mins relative to control; format: ADME, Neoplasm; conditions: read-out: Drug uptake
[7] = Ratio of drug level in Fisher 344 rat brain to rat 9L tumor cells implanted in Fisher 344 rat after 120 mins; format: ADME, cell-based; conditions: 2 h
[8] = Drug uptake in rat 9L tumor implanted in Fischer 344 rat after 30 mins relative to control; format: ADME, Neoplasm; conditions: read-out: Drug uptake
[9] = Ratio of drug level in Fisher 344 rat brain to rat 9L tumor cells implanted in Fisher 344 rat after 15 mins; format: ADME, cell-based; conditions: 0.25 h

Q: With `N[C@@]1(C(=O)O)CC[C@@H]1[18F]` as the molecule, how does the Drug uptake (9L) read?
A: 3.3%

Q: And the tissue uptake at 0.25 h [1]?
A: 0.51 %ID/g

Q: What about the tissue uptake [2] of the same molecule?
A: 0.04 %ID/g

Q: And the Ratio [3]?
A: 14

Q: What about the tissue uptake at 1 h [4] of the same molecule?
A: 0.65 %ID/g

Q: What about the Ratio [5] of the same molecule?
A: 17

Q: And the tissue uptake at 2 h [6]?
A: 0.6 %ID/g

Q: What about the Ratio [7] of the same molecule?
A: 26

Q: What about the tissue uptake at 0.5 h [8] of the same molecule?
A: 0.66 %ID/g

Q: What about the Ratio [9] of the same molecule?
A: 12

Q: Which Ratio [5] does the source give for `N[C@]1(C(=O)O)C[C@H](C[18F])C1` here?
A: 6.9

Q: Which Ratio [5] does the source give for `N[C@]1(C(=O)O)C[C@@H]([18F])C1` [FLUCICLOVINE F18] here?
A: 6.6

Q: With `N[C@]1(C(=O)O)C[C@H]([18F])C1` as the molecule, how does the Ratio [5] read?
A: 7.6

Q: Which Ratio [5] does the source give for `N[C@]1(C(=O)O)C[C@@H](C[18F])C1` here?
A: 8.9
